Results on nine molecules are retold here after publication PMC2888031 (Bioorganic & medicinal chemistry, 2009).

Entries after “also recorded” stand apart in the source; their conditions may differ.

For the first assay, the system named is S. aureus. Put plainly: S. aureus culture growth in the presence of 500 µM inhibitor. It is filed as cell-based, Staphylococcus aureus. As to conditions: vs control cultures in 2.5% DMSO (Fig. 4).
On to `CC1=NN(c2ccccc2)C(=S)/C1=C/Nc1c(Br)cc(Br)cc1Br` [3–12], for which the “effect on S. aureus growth” value was “do not substantially affect bacterial growth; also recorded: no detrimental effect to bacterial viability; also recorded: non-bacteriocidal; also recorded: do not impair microbial growth in cell culture”.

Turning to `CC1=NN(c2ccccc2)C(=S)/C1=C/Nc1ccc(/N=N/c2ccccc2)cc1` [3–9], the “effect on S. aureus growth” value is on record as “do not substantially affect bacterial growth; also recorded: non-bacteriocidal”.

For `CC1=NN(c2ccccc2)C(=S)/C1=C/Nc1ccc(Br)cc1` [Compound 3-1], the “effect on S. aureus growth” value is recorded as “do not substantially affect bacterial growth”.

Take `Cc1ccc(N2C(=O)/C(=C/c3cc([N+](=O)[O-])cc(Br)c3O)SC2=S)c(C)c1` [Compound 1]: the “effect on S. aureus growth” value was “toxic”.

On to `CC1=NN(c2ccccc2)C(=S)/C1=C/Nc1ccc([N+](=O)[O-])cc1` [Compound 3], for which the “effect on S. aureus growth” value is listed as “only modestly perturb growth”.

Take `CCSc1c(S)cnn(-c2ccccc2)c1=O` [2–9]: the “effect on S. aureus growth” value is “do not significantly inhibit S. aureus growth; also recorded: not bactericidal; also recorded: do not impair microbial growth in cell culture”.

As to `CC1=NN(c2ccccc2)C(=S)/C1=C/Nc1ccccn1` [3–17], the “effect on S. aureus growth” value is given as “do not substantially affect bacterial growth”.

Take `COc1c(S)cnn(-c2cccc(Cl)c2)c1=O` [Compound 2]: the “effect on S. aureus growth” value is given as “only modestly perturb growth”.

Take `CCOc1cnn(-c2cccc(C)c2)c(=O)c1S` [2–20]: the “effect on S. aureus growth” value was “do not significantly inhibit S. aureus growth; also recorded: not bactericidal”.

The target in the next assay is Bacillus anthracis sortase enzyme (BaSrtA) (Bacillus anthracis, UniProt P0DPQ5). The experiment in a line: biochemical.
Bacillus anthracis sortase enzyme (BaSrtA), sequence (P0DPQ5 57-210 limits assumed): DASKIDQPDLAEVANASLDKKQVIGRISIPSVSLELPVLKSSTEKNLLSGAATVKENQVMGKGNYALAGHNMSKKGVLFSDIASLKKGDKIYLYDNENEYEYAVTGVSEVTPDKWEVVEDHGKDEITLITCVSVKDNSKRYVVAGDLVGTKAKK
Details: not given
`CC1=NN(c2ccccc2)C(=S)/C1=C/Nc1c(Br)cc(Br)cc1Br` [3–12] returned a 50% inhibitory concentration (IC50) of 1700 ± 200 nM.

By IC50 is commonly meant the point on the concentration scale where inhibition reaches its midpoint. Low values mean higher potency, high ones lower potency.
